The target of the assay is T1, KDR tyrosine kinase (Homo sapiens, UniProt P35968).
T1 construct: a DNA fragment encoding most of the cytoplasmic domain, commencing with methionine 806 and including the termination codon; made in house; host or cells: Sf9 insect cells (recombinant baculovirus)
As to the kind of experiment: In vitro enzyme assay (ELISA), Test (a), KDR. It is filed as biochemical. Particulars: ATP 8 μM, read-out: IC50 versus KDR tyrosine kinase. As for the experimental part:
The ability of test compounds to inhibit the phosphorylation of a tyrosine containing polypeptide substrate by the tyrosine kinase enzymes PDGFRα, PDGFRβ and KDR was assessed using conventional ELISA assays. DNA encoding the PDGFRα, PDGFRβ or KDR receptor cytoplasmic domains may be obtained by total gene synthesis (International Biotechnology Lab., 1987, 5(3), 19-25) or by cloning. The DNA fragments may be expressed in a suitable expression system to obtain polypeptide with tyrosine kinase activity. For example, PDGFRα, PDGFRβ and KDR receptor cytoplasmic domains, obtained by expression of recombinant protein in insect cells, can be shown to display intrinsic tyrosine kinase activity. In the case of the VEGF receptor KDR (Genbank Accession No. L04947), a DNA fragment encoding most of the cytoplasmic domain, commencing with methionine 806 and including the termination codon may be cloned into a baculovirus transplacement vector [for example pAcYM1 (see The Baculovirus Expression System: A Laboratory Guide, L. A. King and R. D. Possee, Chapman and Hall, 1992) or pAc360 or pBlueBacHis (available from Invitrogen Corporation)]. This recombinant construct may be co-transfected into insect cells [for example Spodoptera frugiperda 21(Sf21) or Spodoptera frugiperda 9(Sf9)] with viral DNA (for example Pharmingen BaculoGold) to prepare recombinant baculovirus. Details of the methods for the assembly of recombinant DNA molecules and the preparation and use of recombinant baculovirus can be found in standard texts, for example Sambrook et al., 1989, Molecular cloning—A Laboratory Manual, 2nd edition, Cold Spring Harbour Laboratory Press and O'Reilly et al., 1992, Baculovirus Expression Vectors—A Laboratory Manual, W. H. Freeman and Co, New York).
For expression, Sf9 cells were infected with plaque-pure KDR recombinant virus and harvested 48 hours later. […]
On the technique in general: An ELISA detects its analyte on a solid surface through an enzyme-linked reagent.

Each structure is given as a SMILES string.

T1 sequence (P35968 786-1356 limits assumed): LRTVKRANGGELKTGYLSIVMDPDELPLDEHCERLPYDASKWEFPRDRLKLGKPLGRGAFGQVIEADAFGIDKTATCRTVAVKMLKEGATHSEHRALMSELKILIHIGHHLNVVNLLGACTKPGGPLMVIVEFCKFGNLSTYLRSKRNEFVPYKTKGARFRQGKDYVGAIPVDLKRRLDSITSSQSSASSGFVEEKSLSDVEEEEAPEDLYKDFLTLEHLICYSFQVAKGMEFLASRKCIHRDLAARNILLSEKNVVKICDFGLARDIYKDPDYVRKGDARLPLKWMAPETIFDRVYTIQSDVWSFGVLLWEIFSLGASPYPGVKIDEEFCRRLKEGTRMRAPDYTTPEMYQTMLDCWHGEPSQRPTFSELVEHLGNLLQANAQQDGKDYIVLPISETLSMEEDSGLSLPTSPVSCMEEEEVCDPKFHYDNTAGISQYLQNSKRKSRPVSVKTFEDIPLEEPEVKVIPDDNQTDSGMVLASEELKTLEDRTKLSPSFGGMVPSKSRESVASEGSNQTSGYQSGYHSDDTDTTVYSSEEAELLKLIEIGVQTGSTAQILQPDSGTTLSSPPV

Broadly, the IC50 is the concentration at which inhibition is half-maximal. Regarding `COc1cc2ncnc(Oc3cnn(CC(=O)Nc4cccc5c4OCO5)c3)c2cc1OC` [Example 2, N-(2,3-methylenedioxyphenyl)-2-[4-(6,7-dimethoxyquinazolin-4-yloxy)pyrazol-1-yl]acetamide], the IC50 was around 1 nM.
